Here are results for 1 compound from article PMC12030314, “Biomarker-Driven Pharmacokinetics and Efficacy of Polymyxin B in Critically Ill Patients with XDR-GN Pneumonia” (Pharmaceuticals, 2025).

Broadly, the Vd is a proportionality between amount in the body and measured concentration, not a real space. A higher Vd goes with extensive tissue distribution. As usually defined, the clearance is a measure of how efficiently the substance is removed, as volume per time. Read a low clearance as inefficient removal. Usually half-life stands for the time in which the quantity being followed falls by half. A higher half-life goes with slow loss.

The structures appear in SMILES notation. Read-outs that look alike come from different tables or passages of the source. Where a SMILES comes first, the peptide text is derived from it. Bridges are numbered along the chain shown (N, C = ends). [ ]: non-standard residue; d: D form. The star is where a group is joined. X1 = CC[C@H](C)CCCCC(=O)*; Dab = NCC[C@H](N)C(=O)O

The data set can be described thus: Plasma pharmacokinetics of intravenous PMB in critically ill patients (UPLC-MS/MS; noncompartmental and two-compartment analysis). The format is in vivo, human. The note with it: for Cmax: read-out: Css,max; for AUC(0-t): read-out: AUCss,0–24h. How it is done: The patients received a 100 mg loading dose followed by a maintenance dose of 50 mg every 12 h. PMB was administered by short-term infusions (60 min). Blood samples were collected from each patient in three stages.
Phase of first dose: Blood samples were collected at defined time points to capture PK data.
Phase of steady state: Although a steady state of PMB concentration can be achieved after 48 h of treatment, considering the special condition of critically ill patients, blood samples were collected immediately before the initiation of the seventh dose (trough) and immediately at the end of the seventh dose (peak).
During the last dose phase, blood samples were collected immediately before the initiation of the last dose, immediately at the end of the last dose, and randomly (at least eight blood samples for each person) at 1.5, 2, 2.5, 3, 5, 7, 9, 12, 15, 19, 24, 48, and 72 h after completing the infusion.
Blood and BAL samples were centrifuged for 10 min (3000 rpm) and immediately stored at −80 °C until analysis.
PMB concentrations in the samples were quantified by monitoring the total concentrations of polymyxin B1 (PB1), polymyxin B2 (PB2), polymyxin B3 (PB3), and isoleucine polymyxin B1 (I-PB1) via a validated ultraperformance liquid chromatography–tandem mass spectrometry (UPLC-MS/MS) assay. The standard substances, including PB1 (CAS P037), PB2 (CAS P037), PB3 (CAS P040), and I-PB1 (CAS P038), were purchased by TOKU-E Company (>99% pure, Bellingham, WA, USA). ACQUITY UPLC system, Quattro PremierXE triple quadrupole mass spectrometer, electrospray isonizaiton source (ESI), and Masslynx 4.1 data processing software were used in this study (Waters Company, Milford, MA, USA). An Acquity UPLC BEH C18 column (50 mm × 2.1 mm internal diameter, 1.8 μm) purchased from Waters (Milford, MA, USA) was used. The mobile phase comprised a 0.2% formic acid aqueous solution and a 0.2% formic acid acetonitrile solution, and the flow rate was 0.3 mL/min. Mass spectrometric detection was performed in positive electrospray ionization (ESI+) mode with multiple reaction monitoring (MRM). The optimized transitions were set as follows: m/z 602.7→101.0 for PB1 and I-PB1, m/z 595.7→100.9 for PB2 and PB3, and […] for the internal standard norvancomycin. Plasma and BAL supernatant was aliquoted into microcentrifuge tubes and sequentially treated with 20 μL norvancomycin or 200 μL 5% trichloroacetic acid. 1 μL plasma and 2 μL BAL of supernatant were collected separately for the detection of PMB concentrations.
Analysis of independently prepared quality control samples indicated good reproducibility (coefficients of variation ≤ 8.39%) and accuracy (measured concentrations ≤ 10.0% from target concentrations). The standard curve was linear over the range of 0.5 to 10,000 ng/mL, with precision and accuracy of less than 15%. The regression coefficient was 0.9985. The relative standard deviation values for the intra- and inter-day precision at low, middle, and high levels were all less than 6%, and the recovery rate was 83.1–85.4%.
The plasma concentration–time values for PMB were analysed via Phoenix WinNonlin 8.1. The data were explored via noncompartmental and two-compartment PK models. The principles for final model selection were a low Akaike information criterion (AIC), visual evaluation of individual plasma concentration–time profiles, and precision of parameter estimations on the basis of one sample t-test or the correlation coefficient. The following PK parameters were generated via noncompartmental and two-compartment analysis: Cmax, CL, Vd, t1/2, k, and AUC was determined via the linear trapezoidal rule. The PMB Css,avg was calculated from the Cmax and Cmin that were directly obtained from the observed peak and trough concentrations in the stable state. The simulated concentrations were obtained via compartment PK models. Factors that affect PMB PK parameters were also evaluated.

[1] abbreviates: 27 critically ill patients, iv 100 mg loading, 50 mg q12h, noncompartmental analysis after last dose, mean.
The mark [2] stands for this setting: Treatment Failure (n = 5), median [IQR].
Where [3] appears, read: human, plasma, iv, 50 mg, Treatment Success (n = 22), median [IQR].
Setting [4] is: human, plasma, iv, 50 mg, Table 2, 27 enrolled patients, mean.

In the case of `CC[C@H](C)CCCCC(=O)N[C@@H](CCN)C(=O)N[C@H](C(=O)N[C@@H](CCN)C(=O)N[C@H]1CCNC(=O)[C@H]([C@@H](C)O)NC(=O)[C@H](CCN)NC(=O)[C@H](CCN)NC(=O)[C@H](CC(C)C)NC(=O)[C@@H](Cc2ccccc2)NC(=O)[C@H](CCN)NC1=O)[C@@H](C)O` [PMB, polymyxin B] (X1-[Dab]T[Dab][Dab][Dab][dF]L[Dab][Dab]T; lactam 4-C), under setting [1], the “half-life (t1/2)” value stood at 19.56 h. Also, the “volume of distribution (Vd)” value under setting [1] is 30.44 L. Further, the “Css,avg” value (Table 2, 27 enrolled patients, mean) was found to be 5.1 µg/mL; the “Css,avg” value (Total (n = 27), median [IQR]) is 5.2 [3.8, 5.9]; the “Css,avg” value under setting [2] is 6.6 [5.9, 7.7]; the “Css,avg” value (Treatment Success (n = 22), median [IQR]) is 5.0 [3.7, 5.5]. The “Css,max” value reads like this: (Total (n = 27), median [IQR]) 8.7 [6.6, 10.1]; under setting [2], 11.1 [9.9, 11.4]. Also, the Cmax runs as follows: (human, plasma, iv, 50 mg, Table 2, 27 enrolled patients, iv 100 mg loading, 50 mg q12h, mean) 8300 ng/mL; under setting [3], 8700 ng/mL. Moreover, the AUC(0-t) reads like this: (human, plasma, iv, 50 mg, Total (n = 27), median [IQR]) 101 µg·h/mL; (human, plasma, iv, 50 mg, Treatment Failure (n = 5), median [IQR]) 64.7 µg·h/mL; under setting [3], 112 µg·h/mL; under setting [4], 110 µg·h/mL. Under setting [4], this compound gave a Vd of 30.4 L. Further, the clearance under setting [4] was 26.7 mL/min. Under setting [4], the half-life is 19.6 h.
